In PubChem BioAssay (NCI):
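Abbreviation: GI50, concentration required for 50% inhibition of growth. TGI denotes the concentration required for complete inhibition of growth.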

Assays:
Assay in all cases: NCI tumour cell line growth inhibition, 384-well format
SNB-19 CNS = test system: SNB-19 CNS
NCI/ADR-RES ovarian = test system: NCI/ADR-RES ovarian
IGROV1 ovarian = test system: IGROV1 ovarian
SK-OV-3 ovarian = test system: SK-OV-3 ovarian
A498 renal = test system: A498 renal
MOLT-4 leukemia = test system: MOLT-4 leukemia
K-562 leukemia = test system: K-562 leukemia
SK-MEL-28 melanoma = test system: SK-MEL-28 melanoma
HOP-62 NSCLC = test system: HOP-62 NSCLC
MALME-3M melanoma = test system: MALME-3M melanoma
HS 578T breast = test system: HS 578T breast
MDA-MB-435 melanoma = test system: MDA-MB-435 melanoma
OVCAR-3 ovarian = test system: OVCAR-3 ovarian
COLO 205 colon = test system: COLO 205 colon
OVCAR-5 ovarian = test system: OVCAR-5 ovarian
SN12C renal = test system: SN12C renal
UACC-62 melanoma = test system: UACC-62 melanoma
UO-31 renal = test system: UO-31 renal
OVCAR-8 ovarian = test system: OVCAR-8 ovarian
UACC-257 melanoma = test system: UACC-257 melanoma
OVCAR-4 ovarian = test system: OVCAR-4 ovarian
NCI-H23 lung = test system: NCI-H23 lung
KM12 colon = test system: KM12 colon
NCI-H226 lung = test system: NCI-H226 lung
786-0 renal = test system: 786-0 renal
U251 glioblastoma = test system: U251 glioblastoma
SK-MEL-5 melanoma = test system: SK-MEL-5 melanoma
HCT-15 colon = test system: HCT-15 colon
RXF 393 renal = test system: RXF 393 renal
NCI-H322M lung = test system: NCI-H322M lung
NCI-H460 NSCLC = test system: NCI-H460 NSCLC
SF-268 CNS = test system: SF-268 CNS
SF-539 CNS = test system: SF-539 CNS
M14 melanoma = test system: M14 melanoma
HCT-116 colon = test system: HCT-116 colon
MDA-MB-231 breast = test system: MDA-MB-231 breast
SW-620 colon = test system: SW-620 colon
TK-10 renal = test system: TK-10 renal
RPMI-8226 leukemia = test system: RPMI-8226 leukemia
PC-3 prostate = test system: PC-3 prostate
HL-60(TB) leukemia = test system: HL-60(TB) leukemia
A549 NSCLC = test system: A549 NSCLC
HCC-2998 colon = test system: HCC-2998 colon
MDA-MB-468 breast = test system: MDA-MB-468 breast
MCF7 breast = test system: MCF7 breast
DU-145 prostate = test system: DU-145 prostate
SF-295 CNS = test system: SF-295 CNS
CCRF-CEM leukemia = test system: CCRF-CEM leukemia
T-47D breast = test system: T-47D breast
LOX IMVI melanoma = test system: LOX IMVI melanoma
BT-549 breast = test system: BT-549 breast
NCI-H522 lung = test system: NCI-H522 lung
SNB-75 CNS = test system: SNB-75 CNS
HOP-92 NSCLC = test system: HOP-92 NSCLC
HT29 colon = test system: HT29 colon
CAKI-1 renal = test system: CAKI-1 renal
EKVX NSCLC = test system: EKVX NSCLC
ACHN renal = test system: ACHN renal

SMILES: CN(C(=O)c1ccc(F)cc1C(F)(F)F)C1CCN(c2nnc(-c3ccnn3C)c3ccccc23)CC1
- GI50 (SNB-19 CNS): 89.5 µM
- TGI (SNB-19 CNS): > 100 µM
- GI50 (NCI/ADR-RES ovarian): 33.3 µM
- TGI (NCI/ADR-RES ovarian): > 100 µM
- GI50 (IGROV1 ovarian): > 100 µM
- TGI (IGROV1 ovarian): > 100 µM
- GI50 (SK-OV-3 ovarian): 89.2 µM
- TGI (SK-OV-3 ovarian): > 100 µM
- GI50 (A498 renal): 46.7 µM
- TGI (A498 renal): > 100 µM
- GI50 (MOLT-4 leukemia): 13 µM
- TGI (MOLT-4 leukemia): 26.4 µM
- GI50 (K-562 leukemia): 15.1 µM
- TGI (K-562 leukemia): > 100 µM
- GI50 (SK-MEL-28 melanoma): > 100 µM
- TGI (SK-MEL-28 melanoma): > 100 µM
- GI50 (HOP-62 NSCLC): 13.9 µM
- TGI (HOP-62 NSCLC): > 100 µM
- GI50 (MALME-3M melanoma): 65 µM
- TGI (MALME-3M melanoma): > 100 µM
- GI50 (HS 578T breast): > 100 µM
- TGI (HS 578T breast): > 100 µM
- GI50 (MDA-MB-435 melanoma): 63.1 µM
- TGI (MDA-MB-435 melanoma): > 100 µM
- GI50 (OVCAR-3 ovarian): 85.6 µM
- TGI (OVCAR-3 ovarian): > 100 µM
- GI50 (COLO 205 colon): 42.9 µM
- TGI (COLO 205 colon): > 100 µM
- GI50 (OVCAR-5 ovarian): > 100 µM
- TGI (OVCAR-5 ovarian): > 100 µM
- GI50 (SN12C renal): > 100 µM
- TGI (SN12C renal): > 100 µM
- GI50 (UACC-62 melanoma): > 100 µM
- TGI (UACC-62 melanoma): > 100 µM
- GI50 (UO-31 renal): 58.7 µM
- TGI (UO-31 renal): > 100 µM
- GI50 (OVCAR-8 ovarian): 34.7 µM
- TGI (OVCAR-8 ovarian): > 100 µM
- GI50 (UACC-257 melanoma): 32 µM
- TGI (UACC-257 melanoma): > 100 µM
- GI50 (OVCAR-4 ovarian): 67.4 µM
- TGI (OVCAR-4 ovarian): > 100 µM
- GI50 (NCI-H23 lung): 30.1 µM
- TGI (NCI-H23 lung): > 100 µM
- GI50 (KM12 colon): > 100 µM
- TGI (KM12 colon): > 100 µM
- GI50 (NCI-H226 lung): 32.1 µM
- TGI (NCI-H226 lung): > 100 µM
- GI50 ([…]-0 renal): > 100 µM
- TGI (786-0 renal): > 100 µM
- GI50 (U251 glioblastoma): 54.3 µM
- TGI (U251 glioblastoma): > 100 µM
- GI50 (SK-MEL-5 melanoma): 8.15 µM
- TGI (SK-MEL-5 melanoma): 21.2 µM
- GI50 (HCT-15 colon): 44.4 µM
- TGI (HCT-15 colon): > 100 µM
- GI50 (RXF 393 renal): 20.9 µM
- TGI (RXF 393 renal): 74.4 µM
- GI50 (NCI-H322M lung): 28 µM
- TGI (NCI-H322M lung): > 100 µM
- GI50 (NCI-H460 NSCLC): 35.7 µM
- TGI (NCI-H460 NSCLC): > 100 µM
- GI50 (SF-268 CNS): 13.9 µM
- TGI (SF-268 CNS): 71 µM
- GI50 (SF-539 CNS): > 100 µM
- TGI (SF-539 CNS): > 100 µM
- GI50 (M14 melanoma): 58.1 µM
- TGI (M14 melanoma): > 100 µM
- GI50 (HCT-116 colon): 47.7 µM
- TGI (HCT-116 colon): > 100 µM
- GI50 (MDA-MB-231 breast): 47 µM
- TGI (MDA-MB-231 breast): > 100 µM
- GI50 (SW-620 colon): > 100 µM
- TGI (SW-620 colon): > 100 µM
- GI50 (TK-10 renal): > 100 µM
- TGI (TK-10 renal): > 100 µM
- GI50 (RPMI-8226 leukemia): 22.5 µM
- TGI (RPMI-8226 leukemia): > 100 µM
- GI50 (PC-3 prostate): 44.5 µM
- TGI (PC-3 prostate): > 100 µM
- GI50 (HL-60(TB) leukemia): 18.7 µM
- TGI (HL-60(TB) leukemia): 43.9 µM
- GI50 (A549 NSCLC): 44.8 µM
- TGI (A549 NSCLC): > 100 µM
- GI50 (HCC-2998 colon): 22.4 µM
- TGI (HCC-2998 colon): > 100 µM
- GI50 (MDA-MB-468 breast): 3.8 µM
- TGI (MDA-MB-468 breast): 21.3 µM
- GI50 (MCF7 breast): 29.9 µM
- TGI (MCF7 breast): > 100 µM
- GI50 (DU-145 prostate): 86.2 µM
- TGI (DU-145 prostate): > 100 µM
- GI50 (SF-295 CNS): > 100 µM
- TGI (SF-295 CNS): > 100 µM
- GI50 (CCRF-CEM leukemia): 12.9 µM
- TGI (CCRF-CEM leukemia): 44.8 µM
- GI50 (T-47D breast): 2.73 µM
- TGI (T-47D breast): 12.5 µM
- GI50 (LOX IMVI melanoma): 46.3 µM
- TGI (LOX IMVI melanoma): > 100 µM
- GI50 (BT-549 breast): 26.7 µM
- TGI (BT-549 breast): > 100 µM
- GI50 (NCI-H522 lung): 35.5 µM
- TGI (NCI-H522 lung): > 100 µM
- GI50 (SNB-75 CNS): 58.5 µM
- TGI (SNB-75 CNS): > 100 µM
- GI50 (HOP-92 NSCLC): 48.3 µM
- TGI (HOP-92 NSCLC): > 100 µM
- GI50 (HT29 colon): 76.6 µM
- TGI (HT29 colon): > 100 µM
- GI50 (CAKI-1 renal): 47.6 µM
- TGI (CAKI-1 renal): > 100 µM
- GI50 (EKVX NSCLC): 21.5 µM
- TGI (EKVX NSCLC): > 100 µM
- GI50 (ACHN renal): > 100 µM
- TGI (ACHN renal): > 100 µM
